{"source": "the supplement of paper PMC10307832", "test_in_all_cases": "relative viability (nuclei count vs DMSO), 5 days (fraction); higher = more cells survive", "key": {"GW-2580 + Trametinib": {"compound": "COC1=CC=C(C=C1)COC2=C(C=C(C=C2)CC3=CN=C(N=C3N)N)OC [GW-2580] + CC(=O)Nc1cccc(-n2c(=O)n(C3CC3)c(=O)c3c(Nc4ccc(I)cc4F)n(C)c(=O)c(C)c32)c1 [Trametinib] (partner 0.02 µM)", "how_it_was_run": "(§1)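 Lung cancer cell lines were pin-tool dosed in 1536-well plates on the day after seeding, with either a lone drug or a fixed anchor-drug dose plus five library-drug doses (not always all listed) in √10 steps. Nuclei were counted on 4× images after 5 days. Relative viability is the ratio of treated-well to vehicle-well nuclei counts, with each value a median of duplicate plates.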"}, "GW-2580 + Pictilisib": {"compound": "COC1=CC=C(C=C1)COC2=C(C=C(C=C2)CC3=CN=C(N=C3N)N)OC [GW-2580] + CS(=O)(=O)N1CCN(Cc2cc3nc(-c4cccc5[nH]ncc45)nc(N4CCOCC4)c3s2)CC1 [Pictilisib] (partner 1 µM)", "how_it_was_run": "as §1"}, "GW-2580 + Decitabine": {"compound": "COC1=CC=C(C=C1)COC2=C(C=C(C=C2)CC3=CN=C(N=C3N)N)OC [GW-2580] + Nc1ncn([C@H]2C[C@H](O)[C@@H](CO)O2)c(=O)n1 [Decitabine] (partner 2 µM)", "how_it_was_run": "as §1"}, "Fedratinib + Dasatinib": {"compound": "Cc1cnc(Nc2ccc(OCCN3CCCC3)cc2)nc1Nc1cccc(S(=O)(=O)NC(C)(C)C)c1 [Fedratinib] + Cc1nc(Nc2ncc(C(=O)Nc3c(C)cccc3Cl)s2)cc(N2CCN(CCO)CC2)n1 [Dasatinib] (partner 0.075 µM)", "how_it_was_run": "as §1"}, "Fedratinib + Navitoclax": {"compound": "Cc1cnc(Nc2ccc(OCCN3CCCC3)cc2)nc1Nc1cccc(S(=O)(=O)NC(C)(C)C)c1 [Fedratinib] + CC1(C)CCC(c2ccc(Cl)cc2)=C(CN2CCN(c3ccc(C(=O)NS(=O)(=O)c4ccc(N[C@H](CCN5CCOCC5)CSc5ccccc5)c(S(=O)(=O)C(F)(F)F)c4)cc3)CC2)C1 [Navitoclax] (partner 0.5 µM)", "how_it_was_run": "as §1"}}}
{"cell line": "NCI-H358", "values": [{"measurement": "relative viability", "setting": "GW-2580 + Trametinib; first compound 0.08 µM", "result": 0.149}, {"measurement": "relative viability", "setting": "GW-2580 + Trametinib; first compound 0.8 µM", "result": 0.139}, {"measurement": "relative viability", "setting": "GW-2580 + Trametinib; first compound 2.53 µM", "result": 0.131}, {"measurement": "relative viability", "setting": "GW-2580 + Trametinib; first compound 8 µM", "result": 0.132}, {"measurement": "relative viability", "setting": "GW-2580 + Pictilisib; first compound 0.08 µM", "result": 0.356}, {"measurement": "relative viability", "setting": "GW-2580 + Pictilisib; first compound 0.8 µM", "result": 0.32}, {"measurement": "relative viability", "setting": "GW-2580 + Pictilisib; first compound 2.53 µM", "result": 0.28}, {"measurement": "relative viability", "setting": "GW-2580 + Pictilisib; first compound 8 µM", "result": 0.308}, {"measurement": "relative viability", "setting": "GW-2580 + Decitabine; first compound 0.08 µM", "result": 0.208}, {"measurement": "relative viability", "setting": "GW-2580 + Decitabine; first compound 0.8 µM", "result": 0.206}, {"measurement": "relative viability", "setting": "GW-2580 + Decitabine; first compound 2.53 µM", "result": 0.201}, {"measurement": "relative viability", "setting": "GW-2580 + Decitabine; first compound 8 µM", "result": 0.217}, {"measurement": "relative viability", "setting": "Fedratinib + Dasatinib; first compound 0.1 µM", "result": 0.148}, {"measurement": "relative viability", "setting": "Fedratinib + Dasatinib; first compound 0.3162 µM", "result": 0.147}, {"measurement": "relative viability", "setting": "Fedratinib + Dasatinib; first compound 1 µM", "result": 0.129}]}
{"cell line": "NCI-H1563", "values": [{"measurement": "relative viability", "setting": "GW-2580 + Pictilisib; first compound 0.08 µM", "result": 0.686}, {"measurement": "relative viability", "setting": "GW-2580 + Pictilisib; first compound 0.8 µM", "result": 0.661}, {"measurement": "relative viability", "setting": "GW-2580 + Pictilisib; first compound 2.53 µM", "result": 0.655}, {"measurement": "relative viability", "setting": "GW-2580 + Pictilisib; first compound 8 µM", "result": 0.642}, {"measurement": "relative viability", "setting": "Fedratinib + Dasatinib; first compound 0.1 µM", "result": 0.504}, {"measurement": "relative viability", "setting": "Fedratinib + Dasatinib; first compound 0.3162 µM", "result": 0.44}, {"measurement": "relative viability", "setting": "Fedratinib + Dasatinib; first compound 1 µM", "result": 0.429}]}
{"cell line": "NCI-H522", "values": [{"measurement": "relative viability", "setting": "GW-2580 + Trametinib; first compound 0.08 µM", "result": 0.804}, {"measurement": "relative viability", "setting": "GW-2580 + Trametinib; first compound 0.8 µM", "result": 0.673}, {"measurement": "relative viability", "setting": "GW-2580 + Trametinib; first compound 2.53 µM", "result": 0.656}, {"measurement": "relative viability", "setting": "GW-2580 + Trametinib; first compound 8 µM", "result": 0.753}, {"measurement": "relative viability", "setting": "GW-2580 + Decitabine; first compound 0.08 µM", "result": 0.738}, {"measurement": "relative viability", "setting": "GW-2580 + Decitabine; first compound 0.8 µM", "result": 0.62}, {"measurement": "relative viability", "setting": "GW-2580 + Decitabine; first compound 2.53 µM", "result": 0.668}, {"measurement": "relative viability", "setting": "GW-2580 + Decitabine; first compound 8 µM", "result": 0.682}, {"measurement": "relative viability", "setting": "Fedratinib + Dasatinib; first compound 0.1 µM", "result": 0.88}, {"measurement": "relative viability", "setting": "Fedratinib + Dasatinib; first compound 0.3162 µM", "result": 1.05}, {"measurement": "relative viability", "setting": "Fedratinib + Dasatinib; first compound 1 µM", "result": 0.599}]}
{"cell line": "IA-LM", "values": [{"measurement": "relative viability", "setting": "GW-2580 + Pictilisib; first compound 0.08 µM", "result": 0.315}, {"measurement": "relative viability", "setting": "GW-2580 + Pictilisib; first compound 0.8 µM", "result": 0.324}, {"measurement": "relative viability", "setting": "GW-2580 + Pictilisib; first compound 2.53 µM", "result": 0.398}, {"measurement": "relative viability", "setting": "GW-2580 + Pictilisib; first compound 8 µM", "result": 0.405}, {"measurement": "relative viability", "setting": "Fedratinib + Navitoclax; first compound 0.1 µM", "result": 0.884}, {"measurement": "relative viability", "setting": "Fedratinib + Navitoclax; first compound 0.3162 µM", "result": 0.721}, {"measurement": "relative viability", "setting": "Fedratinib + Navitoclax; first compound 1 µM", "result": 0.972}]}
{"cell line": "NCI-H1703", "values": [{"measurement": "relative viability", "setting": "GW-2580 + Pictilisib; first compound 0.08 µM", "result": 0.218}, {"measurement": "relative viability", "setting": "GW-2580 + Pictilisib; first compound 0.8 µM", "result": 0.295}, {"measurement": "relative viability", "setting": "GW-2580 + Pictilisib; first compound 2.53 µM", "result": 0.267}, {"measurement": "relative viability", "setting": "GW-2580 + Pictilisib; first compound 8 µM", "result": 0.234}, {"measurement": "relative viability", "setting": "Fedratinib + Navitoclax; first compound 0.1 µM", "result": 0.482}, {"measurement": "relative viability", "setting": "Fedratinib + Navitoclax; first compound 0.3162 µM", "result": 0.955}, {"measurement": "relative viability", "setting": "Fedratinib + Navitoclax; first compound 1 µM", "result": 0.498}]}
{"cell line": "LCLC-103H", "values": [{"measurement": "relative viability", "setting": "GW-2580 + Trametinib; first compound 0.08 µM", "result": 0.725}, {"measurement": "relative viability", "setting": "GW-2580 + Trametinib; first compound 0.8 µM", "result": 0.716}, {"measurement": "relative viability", "setting": "GW-2580 + Trametinib; first compound 2.53 µM", "result": 0.64}, {"measurement": "relative viability", "setting": "GW-2580 + Trametinib; first compound 8 µM", "result": 0.637}, {"measurement": "relative viability", "setting": "GW-2580 + Pictilisib; first compound 0.08 µM", "result": 0.648}, {"measurement": "relative viability", "setting": "GW-2580 + Pictilisib; first compound 0.8 µM", "result": 0.638}, {"measurement": "relative viability", "setting": "GW-2580 + Pictilisib; first compound 2.53 µM", "result": 0.649}, {"measurement": "relative viability", "setting": "GW-2580 + Pictilisib; first compound 8 µM", "result": 0.599}, {"measurement": "relative viability", "setting": "GW-2580 + Decitabine; first compound 0.08 µM", "result": 0.752}, {"measurement": "relative viability", "setting": "GW-2580 + Decitabine; first compound 0.8 µM", "result": 0.724}, {"measurement": "relative viability", "setting": "GW-2580 + Decitabine; first compound 2.53 µM", "result": 0.661}, {"measurement": "relative viability", "setting": "GW-2580 + Decitabine; first compound 8 µM", "result": 0.706}, {"measurement": "relative viability", "setting": "Fedratinib + Dasatinib; first compound 0.1 µM", "result": 0.492}, {"measurement": "relative viability", "setting": "Fedratinib + Dasatinib; first compound 0.3162 µM", "result": 0.294}, {"measurement": "relative viability", "setting": "Fedratinib + Dasatinib; first compound 1 µM", "result": 0.511}]}
{"cell line": "SW 900", "values": [{"measurement": "relative viability", "setting": "GW-2580 + Trametinib; first compound 0.08 µM", "result": 0.711}, {"measurement": "relative viability", "setting": "GW-2580 + Trametinib; first compound 0.8 µM", "result": 0.785}, {"measurement": "relative viability", "setting": "GW-2580 + Trametinib; first compound 2.53 µM", "result": 0.759}, {"measurement": "relative viability", "setting": "GW-2580 + Trametinib; first compound 8 µM", "result": 0.896}, {"measurement": "relative viability", "setting": "GW-2580 + Decitabine; first compound 0.08 µM", "result": 0.467}, {"measurement": "relative viability", "setting": "GW-2580 + Decitabine; first compound 0.8 µM", "result": 0.45}, {"measurement": "relative viability", "setting": "GW-2580 + Decitabine; first compound 2.53 µM", "result": 0.422}, {"measurement": "relative viability", "setting": "GW-2580 + Decitabine; first compound 8 µM", "result": 0.472}, {"measurement": "relative viability", "setting": "Fedratinib + Dasatinib; first compound 0.1 µM", "result": 0.498}, {"measurement": "relative viability", "setting": "Fedratinib + Dasatinib; first compound 0.3162 µM", "result": 0.51}, {"measurement": "relative viability", "setting": "Fedratinib + Dasatinib; first compound 1 µM", "result": 0.643}]}
